Test [1] deals with breast tumor cells MDA-MB-436. In words: MDA-MB-436 cell activity test (CellTiter-Glo, 7 days). It counts as cell-based, human. As to conditions: for IC50: 7 days incubation, read-out: IC50 (nM), MDA-MB-436 cell inhibitory activity; for inhibition at 10 µM: MDA-MB-436, MDA-MB-436 cells, read-out: Max inh. % 10 μM. On the procedure: Breast tumor cells MDA-MB-436 were purchased from ATCC, the culture medium was Leibovitz's L-15+10% FBS, and the cells were cultured in a CO2-free incubator at 37° C. On day 1, the cells in the exponential growth phase were collected, and the cell suspension was adjusted to 4000 cells/135 μL with the culture medium. 135 μL of the cell suspension was added to each well of a 96-well cell culture plate and incubated overnight. On day 2, compounds at different concentrations were added, and the plate was placed in the incubator and incubated for 7 days. After the culture was completed, according to operation instructions for a CellTiter-Glo kit (Promega, G7573), 75 μL of CTG solution, which was already pre-melted and equilibrated to room temperature, was added to each well, and the mixture was uniformly mixed for 2 minutes using a microplate shaker. The plate was placed at room temperature for 10 minutes, and then […] signal values were determined using an Envision2104 plate reader (PerkinElmer). The inhibition rate was calculated using formula (1), where RLUcompound was the readout of the drug treated group, RLUcontrol was the average value of the solvent control group, and RLUblank was the average value of the cell-free well. The IC50 value was calculated using GraphPad Prism software.
On the technique in general: In ATP-based viability assays light output follows the ATP content of the culture.

The target in test [2] is PARP1 (Homo sapiens (Human), UniProt P09874). In words: PARP1 protein expression level in MDA-MB-436 cells. It counts as cell-based. As to conditions: 100 nM, 24 hours. On the procedure:
(§1) MDA-MB-436 cells were placed in a complete DMEM medium (supplemented with 15% FBS; 10 μg/mL Insulin; 16 μg/mL Glutathione and 1% penicillin-streptomycin solution), and cultured at 37° C. under CO2-free conditions. The cells in the logarithmic growth phase were collected, the cell density was adjusted to 2×10^5 cells/well with the culture medium, and the cells were added to a 6-well cell culture plate at a volume of 1 mL/well. The compound to be tested was prepared to 2-fold the final concentration, 1 mL of the compounds at different concentrations were added to administration wells, a medium containing 0.2% DMSO was added to control wells, and the plate was incubated for 24 hours at 37° C. The cells were collected into a 1.5 mL centrifuge tube, 25 μL of RIPA lysis buffer (containing 1× protease inhibitor cocktail) was added, and the cells were lysed on ice for 15 minutes and centrifuged at 12000 rpm/min at 4° C. for 10 minutes. The supernatant was collected and the protein content was determined using the BCA method. The protein sample to be tested was diluted to 0.8 mg/mL, PARP1 was detected using a fully automated protein expression quantitative analyzer (ProteinSimple), and the internal reference protein was 3-actin (both antibodies were from CST). The software (Compass for SW) of the fully automated protein expression quantitative analyzer was used to process the raw data and calculate the peak area and the PARP1 expression rate relative to the control group.
as §1, with “L-15” for “DMEM”, “mL/well and cultured overnight. On day 2, the” for “mL/well. The”, “group. DC50 values were calculated using a four-parameter non-linear fitting model in Graphpad 8.3.0 software.” for “group.”

[3] abbreviates: Homo sapiens, MDA-MB-436, 168 h, MDA-MB-436 cells.

Like-named read-outs stand apart in the source and are kept apart here.

PARP1, sequence (P09874 whole entry): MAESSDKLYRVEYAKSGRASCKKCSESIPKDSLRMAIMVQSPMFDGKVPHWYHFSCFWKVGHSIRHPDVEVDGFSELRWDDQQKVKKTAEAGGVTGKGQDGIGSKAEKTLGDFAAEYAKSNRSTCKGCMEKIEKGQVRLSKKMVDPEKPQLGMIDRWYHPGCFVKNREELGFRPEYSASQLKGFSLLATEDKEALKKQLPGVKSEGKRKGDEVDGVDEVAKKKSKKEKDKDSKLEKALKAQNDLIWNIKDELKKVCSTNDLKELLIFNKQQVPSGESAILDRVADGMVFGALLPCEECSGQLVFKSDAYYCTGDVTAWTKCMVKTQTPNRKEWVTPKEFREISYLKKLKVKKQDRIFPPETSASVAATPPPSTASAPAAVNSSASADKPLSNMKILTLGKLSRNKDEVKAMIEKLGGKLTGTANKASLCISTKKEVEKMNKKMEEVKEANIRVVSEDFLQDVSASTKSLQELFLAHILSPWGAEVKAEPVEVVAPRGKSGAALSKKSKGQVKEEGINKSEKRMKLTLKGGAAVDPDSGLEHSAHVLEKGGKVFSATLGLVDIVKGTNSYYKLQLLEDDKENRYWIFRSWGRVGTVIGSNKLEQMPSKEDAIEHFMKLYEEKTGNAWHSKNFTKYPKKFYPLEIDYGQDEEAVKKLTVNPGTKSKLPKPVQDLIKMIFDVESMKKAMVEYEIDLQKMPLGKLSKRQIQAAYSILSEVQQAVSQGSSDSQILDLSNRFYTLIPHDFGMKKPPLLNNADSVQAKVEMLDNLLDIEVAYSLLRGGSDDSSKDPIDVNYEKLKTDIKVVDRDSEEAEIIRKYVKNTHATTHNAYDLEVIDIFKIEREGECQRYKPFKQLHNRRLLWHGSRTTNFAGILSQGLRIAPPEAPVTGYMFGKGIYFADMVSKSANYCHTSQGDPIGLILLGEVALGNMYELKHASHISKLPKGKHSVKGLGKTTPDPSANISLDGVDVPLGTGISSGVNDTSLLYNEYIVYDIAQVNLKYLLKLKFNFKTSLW

The term IC50 denotes the concentration that gives 50% inhibition. For the compound `CCc1cc2ncc(CN3CCN(c4ccc(C(=O)NC5CC6(C5)CN(c5ccc7c(c5)C(=O)N(C5CCC(=O)NC5=O)C7=O)C6)nc4)CC3)cc2[nH]c1=O` (centres unmarked) [Compound 24, N-(2-(2-(2,6-dioxopiperidin-3-yl)-1,3-dioxoisoindolin-5-yl)-2-azaspiro[3.3]heptan-6-yl)-5-(4-((7-ethyl-6-oxo-5,6-dihydro-1,5-naphthyridin-3-yl)methyl)piperazin-1-yl)picolinamide], in test [1] (setting [3]), the IC50 was 38 nM. For the same compound, the inhibition at 10 µM in test [1] (Homo sapiens, 10 μM) was 98.9%. In addition, the “PARP1 degradation rate @ 100 nM” value in test [2] was found to be 76.2%.

As for `CCc1cc2ncc(CN3CCN(c4ccc(C(=O)NC5CCN(C6CN(c7cc8c(cc7F)C(=O)N(C7CCC(=O)NC7=O)C8=O)C6)CC5)nc4)CC3)cc2[nH]c1=O` (centres unmarked) [Compound 26, N-(1-(1-(2-(2,6-dioxopiperidin-3-yl)-6-fluoro-1,3-dioxoisoindolin-5-yl)azetidin-3-yl)piperidin-4-yl)-5-(4-((7-ethyl-6-oxo-5,6-dihydro-1,5-naphthyridin-3-yl)methyl)piperazin-1-yl)picolinamide], the IC50 in test [1] (setting [3]) is 53 nM. Besides, the inhibition at 10 µM in test [1] (Homo sapiens, 10 μM) turned out to be 81.7%. Moreover, the “PARP1 degradation rate @ 100 nM” value in test [2] is 83.5%.

On to `CCc1cc2ncc(CN3CCN(c4ccc(C(=O)NC5CCN(c6ccc7c(c6)CN(C6CCC(=O)NC6=O)C7=O)CC5)nc4)CC3)cc2[nH]c1=O` (centres unmarked) [Compound 31, N-(1-(2-(2,6-dioxopiperidin-3-yl)-1-oxoisoindolin-5-yl)piperidin-4-yl)-5-(4-((7-ethyl-6-oxo-5,6-dihydro-1,5-naphthyridin-3-yl)methyl)piperazin-1-yl)picolinamide], for which the “PARP1 degradation rate @ 100 nM” value in test [2] stood at 92.1%.

For the compound `CCc1cc2ncc(CN3CC=C(c4ccc(C(=O)N[C@H]5CCN(c6ccc7c(c6)C(=O)N(C6CCC(=O)NC6=O)C7=O)C5)nc4)CC3)cc2[nH]c1=O` (stereo partly drawn) [Compound 53, N-((3S)-1-(2-(2,6-dioxopiperidin-3-yl)-1,3-dioxoisoindolin-5-yl)pyrrolidin-3-yl)-1′-((7-ethyl-6-oxo-5,6-dihydro-1,5-naphthyridin-3-yl)methyl)-1′,2′,3′,6′-tetrahydro-[3,4′-bipyridine]-6-carboxamide], the half-inhibitory concentration (IC50) in test [1] (setting [3]) stood at 58 nM. Moreover, the inhibition at 10 µM in test [1] (Homo sapiens, 10 μM) stood at 98%.

For the compound `CCc1cc2ncc(CN3CCN(c4ccc(C(=O)N[C@H]5C[C@H](Oc6ccc7c(c6)C(=O)N(C6CCC(=O)NC6=O)C7=O)C5)nc4)CC3)cc2[nH]c1=O` (some centres unmarked) [Compound 59, N-((1r,3r)-3-((2-(2,6-dioxopiperidin-3-yl)-1,3-dioxoisoindolin-5-yl)oxy)cyclobutyl)-5-(4-((7-ethyl-6-oxo-5,6-dihydro-1,5-naphthyridin-3-yl)methyl)piperazin-1-yl)picolinamide], the IC50 in test [1] (setting [3]) came out at 38 nM. Further, in test [1] (Homo sapiens, 10 μM), the inhibition at 10 µM was determined as 81.7%.

For the compound `CCc1cc2ncc(CN3CCN(c4ccc(C(=O)NC5CC(Oc6ccc7c(c6)C(=O)N(C6CCC(=O)NC6=O)C7=O)C5)nc4)CC3)cc2[nH]c1=O` (centres unmarked) [Compound 60, N-((1s,3s)-3-((2-(2,6-dioxopiperidin-3-yl)-1,3-dioxoisoindolin-5-yl)oxy)cyclobutyl)-5-(4-((7-ethyl-6-oxo-5,6-dihydro-1,5-naphthyridin-3-yl)methyl)piperazin-1-yl)picolinamide], in test [1] (setting [3]), the IC50 was found to be 33 nM. Besides, in test [1] (Homo sapiens, 10 μM), the inhibition at 10 µM amounted to 82%.

Turning to `CCc1cc2ncc(CN3CCN(c4ccc(C(=O)NC5CCN(c6cccc(N7CCC(=O)NC7=O)c6)CC5)nc4)CC3)cc2[nH]c1=O` [Compound 62, N-(1-(3-(2,4-dioxotetrahydropyrimidin-1(2H)-yl)phenyl)piperidin-4-yl)-5-(4-((7-ethyl-6-oxo-5,6-dihydro-1,5-naphthyridin-3-yl)methyl)piperazin-1-yl)picolinamide], the IC50 in test [1] (setting [3]) came to 17.9 nM. In addition, in test [1] (Homo sapiens, 10 μM), the inhibition at 10 µM came to 82.9%.

With `CCc1cc2ncc(CN3CC=C(c4ccc(C(=O)NC5CCN(c6cccc(N7CCC(=O)NC7=O)c6)CC5)nc4)CC3)cc2[nH]c1=O` [Compound 63, N-(1-(3-(2,4-dioxotetrahydropyrimidin-1(2H)-yl)phenyl)piperidin-4-yl)-1′-((7-ethyl-6-oxo-5,6-dihydro-1,5-naphthyridin-3-yl)methyl)-1′,2′,3′,6′-tetrahydro-[3,4′-bipyridine]-6-carboxamide], in test [1] (setting [3]), the IC50 was determined as 16.1 nM. Also, the inhibition at 10 µM in test [1] (Homo sapiens, 10 μM) was 83.1%.

Regarding `CCc1cc2ncc(CN3CCN(c4ccc(C(=O)NC5CCN(c6cccc(NC7CCC(=O)NC7=O)c6)CC5)nc4)CC3)cc2[nH]c1=O` (centres unmarked) [Compound 64], the IC50 in test [1] (setting [3]) came out at 27.9 nM. Also, the inhibition at 10 µM in test [1] (Homo sapiens, 10 μM) turned out to be 84.9%.

With `CCc1cc2ncc(CN3CC=C(c4ccc(C(=O)NC5CCN(c6cccc(NC7CCC(=O)NC7=O)c6)CC5)nc4)CC3)cc2[nH]c1=O` (centres unmarked) [Compound 65, N-(1-(3-((2,6-dioxopiperidin-3-yl)amino)phenyl)piperidin-4-yl)-1′-((7-ethyl-6-oxo-5,6-dihydro-1,5-naphthyridin-3-yl)methyl)-1′,2′,3′,6′-tetrahydro-[3,4′-bipyridine]-6-carboxamide], the IC50 in test [1] (setting [3]) came to 39.5 nM. Further, the inhibition at 10 µM in test [1] (Homo sapiens, 10 μM) is 76.8%.

For the compound `CCc1cc2ncc(CN3CCN(c4ccc(C(=O)NC5CCC(Oc6ccc7c(c6)C(=O)N(C6CCC(=O)NC6=O)C7=O)CC5)nc4)CC3)cc2[nH]c1=O` (centres unmarked) [Compound 67, N-((1s,4s)-4-((2-(2,6-dioxopiperidin-3-yl)-1,3-dioxoisoindolin-5-yl)oxy)cyclohexyl)-5-(4-((7-ethyl-6-oxo-5,6-dihydro-1,5-naphthyridin-3-yl)methyl)piperazin-1-yl)picolinamide], in test [1] (MDA-MB-436 cells, 10 μM), the “Max inh. % 10 μM” value is listed as 96.2%. In addition, in test [1] (MDA-MB-436 cells), the IC50 was 100 nM.

Turning to `CCc1cc2ncc(CN3CCN(c4ccc(NC(=O)c5cnn(C6CCN(c7ccc8c(c7)C(=O)N(C7CCC(=O)NC7=O)C8=O)CC6)c5)nc4)CC3)cc2[nH]c1=O` (centres unmarked) [Compound 68, 1-(1-(2-(2,6-dioxopiperidin-3-yl)-1,3-dioxoisoindolin-5-yl)piperidin-4-yl)-N-(5-(4-((7-ethyl-6-oxo-5,6-dihydro-1,5-naphthyridin-3-yl)methyl)piperazin-1-yl)pyridin-2-yl)-1H-pyrazole-4-carboxamide], the IC50 in test [1] (setting [3]) came to 12.3 nM. The inhibition at 10 µM in test [1] (Homo sapiens, 10 μM) is 88.6%.

As to `CCc1cc2ncc(CN3CCN(c4ccc(C(=O)NC5CCN(c6ncc(N7CCC(=O)NC7=O)cn6)CC5)nc4)CC3)cc2[nH]c1=O` [Compound 69, N-(1-(5-(2,4-dioxotetrahydropyrimidin-1(2H)-yl)pyrimidin-2-yl)piperidin-4-yl)-5-(4-((7-ethyl-6-oxo-5,6-dihydro-1,5-naphthyridin-3-yl)methyl)piperazin-1-yl)picolinamide], the concentration for half-maximal inhibition (IC50) in test [1] (setting [3]) is 15.3 nM. For the same compound, the inhibition at 10 µM in test [1] (Homo sapiens, 10 μM) worked out at 88.4%.

For `Cc1nc2ccc(CN3CCN(c4ccc(C(=O)NC5CCN(c6cccc(N7CCC(=O)NC7=O)c6)CC5)nc4F)CC3)c(F)c2[nH]c1=O` [Compound 71, N-(1-(3-(2,4-dioxotetrahydropyrimidin-1(2H)-yl)phenyl)piperidin-4-yl)-6-fluoro-5-(4-((5-fluoro-2-methyl-3-oxo-3,4-dihydroquinoxalin-6-yl)methyl)piperazin-1-yl)picolinamide], the IC50 in test [1] (setting [3]) turned out to be 73.4 nM. For the same compound, in test [1] (Homo sapiens, 10 μM), the inhibition at 10 µM was 99%.

The record behind these values is patent US20250222116A1, “PARP-1 DEGRADATION AGENT AND USE THEREOF” (XIZANG HAISCO PHARMACEUTICAL CO., LTD., priority 2021, published 2025).
